Experimental findings from patent publication US20240025883A1, “PYRIMIDIN-2-YL SULFONAMIDE DERIVATIVES” (Hoffmann-La Roche Inc., priority 2021, published 2024) are described below.

The structures appear in SMILES notation.

One may read the IC50 as the concentration at which inhibition is half-maximal.

Chain of human GPR17 short isoform (Q13304 29-367): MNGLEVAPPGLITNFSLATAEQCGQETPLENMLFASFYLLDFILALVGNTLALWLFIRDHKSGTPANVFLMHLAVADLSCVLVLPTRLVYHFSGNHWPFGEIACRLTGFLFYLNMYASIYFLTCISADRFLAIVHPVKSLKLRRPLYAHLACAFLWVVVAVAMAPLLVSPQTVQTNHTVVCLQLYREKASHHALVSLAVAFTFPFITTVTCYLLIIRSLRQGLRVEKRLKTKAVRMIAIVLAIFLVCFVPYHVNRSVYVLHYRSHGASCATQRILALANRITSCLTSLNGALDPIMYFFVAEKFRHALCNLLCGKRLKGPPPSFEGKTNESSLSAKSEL

This assay deals with human GPR17 short isoform (Homo sapiens (Human), UniProt Q13304). The experiment in a line: GPR17 cAMP assay (hGPR17 cAMP, antagonist mode against EC80 of MDL29,951). It counts as cell-based. As to conditions: CHO-K1 cells stably expressing human GPR17 short isoform; EC80 of agonist MDL29,951; forskolin 15 μM. The procedure: GPR17 cAMP Assay Protocol:
CHO-K1 cells stably expressing vector containing untagged human GPR17 short isoform (Roche) were cultured at 37° C./5% CO2 in DMEM (Dulbecco's Modified Eagle Medium):F-12 (1:1) supplemented with 10% foetal bovine serum and 400 μg/ml Geneticin.
Changes in intracellular cyclic adenosine monophosphate (cAMP) levels were quantified using the Nano-TRF Detection Assay kit (Roche Diagnostics, Cat. No. 05214386001). This assay allows for direct cAMP quantification in a homogeneous solution, cAMP is detected based on time-resolved fluorescence energy transfer (TR-FRET) and competitive binding of ruthenylated cAMP and endogenous cAMP to an anti-cAMP monoclonal antibody labeled with AlexaFluor-700. The Ruthenium complex serves as the FRET donor and transfers energy to AlexaFluor-700. The FRET signal is inversely proportional to the cAMP concentration.
CHO-GPR17S cells were detached with Accutase and resuspended in assay buffer consisting of Hank's Balanced Salt Solution (HBSS), 10 mM HEPES (4-(2-hydroxyethyl) piperazine-1-ethanesulfonic acid solution) and 0.1% bovine serum albumin (pH 7.4). The cells were seeded in black 384-well plates (Corning) at a density of 10,000 cells/20 μl assay buffer until the addition of compounds.
Test antagonist compounds were serially diluted in dimethyl sulfoxide (DMSO) and spotted in 384-well plates. The compounds were then diluted in HBSS buffer supplemented with an EC80 concentration of MDL29,951 (3-(2-Carboxy-4,6-dichloroindol-3-yl)propionic acid) (GPR17 agonist) plus 3-Isobutyl-1-methylxanthine (IBMX) (0.5 mM final concentration) and added to the cells at room temperature. Forskolin (15 μM final concentration) was added 5 minutes after the test compounds and the cells were incubated at room temperature for 30 minutes. The assay was stopped by adding cAMP detection mix (containing detergents for cell lysis) for 90 minutes at room temperature.
Cellular cAMP was measured using a Paradigm reader (Molecular Devices). The raw data was used to calculate the FRET signal based on the assay's P-factor as per cAMP kit instructions. The data was normalized to the maximal activity of a reference antagonist and dose response curves were fitted to the percent activity of the test compounds using a sigmoidal dose response model (Genedata Screener).
In general terms: Cyclic AMP is a second messenger, typically raised through Gs and lowered through Gi signalling.
`COc1nc(NS(=O)(=O)c2c[nH]c3c(OC)c(Cl)ccc23)ncc1CC(F)F` [Example 186, 6-chloro-N-[5-(2,2-difluoroethyl)-4-methoxy-pyrimidin-2-yl]-7-methoxy-1H-indole-3-sulfonamide] came in with an IC50 of 13 nM.
In turn, `COc1nc(NS(=O)(=O)c2c[nH]c3cc(F)ccc23)ncc1CC(F)F` [Example 140, N-[5-(2,2-difluoroethyl)-4-methoxy-pyrimidin-2-yl]-6-fluoro-1H-indole-3-sulfonamide] had an IC50 of 50 nM.
Then `COc1nc(NS(=O)(=O)c2c[nH]c3nc(C)ccc23)nc(OC)c1OCC#N` [Example 284, N-[5-(Cyanomethoxy)-4,6-Dimethoxy-Pyrimidin-2-Yl]-6-Methyl-1H-Pyrrolo[2,3-b]Pyridine-3-Sulfonamide], with 273 nM; and `COc1nc(NS(=O)(=O)c2csc3nc(Br)ccc23)ncc1OCCF` [Example 146, 6-bromo-N-[5-(2-fluoroethoxy)-4-methoxy-pyrimidin-2-yl]thieno[2,3-b]pyridine-3-sulfonamide], with 89 nM; and `COc1nc(NS(=O)(=O)c2c[nH]c3cc(F)ccc23)nc(OC)c1OC(F)F` [Example 256, N-[5-(difluoromethoxy)-4,6-dimethoxy-pyrimidin-2-yl]-6-fluoro-1H-indole-3-sulfonamide], with 215 nM.
Then `O=S(=O)(Nc1ncc(OCC(F)F)cn1)c1c[nH]c2cc(Cl)ccc12` [Example 34, 6-chloro-N-[5-(2,2-difluoroethoxy)pyrimidin-2-yl]-1H-indole-3-sulfonamide], with 924 nM.
Then `COc1nc(NS(=O)(=O)c2c[nH]c3c(F)c(Cl)ccc23)ncc1OCCF` [Example 2, 6-chloro-7-fluoro-N-[5-(2-fluoroethoxy)-4-methoxy-pyrimidin-2-yl]-1H-indole-3-sulfonamide], with 36 nM; and `COc1nc(NS(=O)(=O)c2csc3nc(Br)ccc23)nc(OC)c1C` [Example 144, 6-bromo-N-(4,6-dimethoxy-5-methyl-pyrimidin-2-yl)thieno[2,3-b]pyridine-3-sulfonamide], with 50 nM; and `COc1nc(NS(=O)(=O)c2c[nH]c3c(F)c(Cl)ccc23)nc(OC)c1OCC#N` [Example 219, 6-chloro-N-[5-(cyanomethoxy)-4,6-dimethoxy-pyrimidin-2-yl]-7-fluoro-1H-indole-3-sulfonamide], with 18 nM.
`COc1nc(NS(=O)(=O)c2c[nH]c3c(F)c(Cl)ccc23)nc(OC)c1OC(F)F` [Example 125, 6-chloro-N-[5-(difluoromethoxy)-4,6-dimethoxy-pyrimidin-2-yl]-7-fluoro-1H-indole-3-sulfonamide] yielded an IC50 of 23 nM.
Then `COc1nc(NS(=O)(=O)c2c[nH]c3nc(Br)ccc23)ncc1OCCF` [Example 230, 6-bromo-N-[5-(2-fluoroethoxy)-4-methoxy-pyrimidin-2-yl]-1H-pyrrolo[2,3-b]pyridine-3-sulfonamide], with 41 nM; and `CC#Cc1c(OC)nc(NS(=O)(=O)c2c[nH]c3cc(Cl)ccc23)nc1OC` [Example 57, 6-chloro-N-(4,6-dimethoxy-5-prop-1-ynyl-pyrimidin-2-yl)-1H-indole-3-sulfonamide], with 34 nM.
In the case of `COCc1c(OC)nc(NS(=O)(=O)c2c[nH]c3cc(Cl)ccc23)nc1OC` [Example 65, 6-chloro-N-[4,6-dimethoxy-5-(methoxymethyl)pyrimidin-2-yl]-1H-indole-3-sulfonamide], the IC50 amounted to 61 nM.
Then `COc1nc(NS(=O)(=O)c2c[nH]c3cc(Br)ccc23)nc(OC)c1OCCF` [Example 91, 6-bromo-N-[5-(2-fluoroethoxy)-4,6-dimethoxy-pyrimidin-2-yl]-1H-indole-3-sulfonamide], with 30 nM.
As to `CCCc1cnc(NS(=O)(=O)c2c[nH]c3cc(Cl)ccc23)nc1OC` [Example 45, 6-chloro-N-(4-methoxy-5-propyl-pyrimidin-2-yl)-1H-indole-3-sulfonamide], the IC50 is 82 nM.
Then `COc1nc(NS(=O)(=O)c2c[nH]c3nc(C(F)F)ccc23)nc(OC)c1CC(F)CF` (centres unmarked) [Example 287, 6-(Difluoromethyl)-N-[5-(2,3-Difluoropropyl)-4,6-Dimethoxy-Pyrimidin-2-Yl]-1H-Pyrrolo[2,3-b]Pyridine-3-Sulfonamide], with 114 nM; and `COc1nc(NS(=O)(=O)c2c[nH]c3cc(Br)ccc23)ncc1CCC#N` [Example 89, 6-bromo-N-[5-(2-cyanoethyl)-4-methoxy-pyrimidin-2-yl]-1H-indole-3-sulfonamide], with 212 nM.
Then `COc1nc(NS(=O)(=O)c2c[nH]c3cc(Cl)ccc23)nc(C2CCOCC2)c1Br` [Example 138, N-(5-bromo-4-methoxy-6-tetrahydropyran-4-yl-pyrimidin-2-yl)-6-chloro-1H-indole-3-sulfonamide], with 20800 nM; and `COc1nc(NS(=O)(=O)c2c[nH]c3cc(Br)ccc23)nc(OC)c1OCC(F)F` [Example 92, 6-bromo-N-[5-(2,2-difluoroethoxy)-4,6-dimethoxy-pyrimidin-2-yl]-1H-indole-3-sulfonamide], with 18 nM; and `COc1nc(NS(=O)(=O)c2c[nH]c3c(Br)cccc23)nc(OC)c1CC(F)F` [Example 134, 7-bromo-N-[5-(2,2-difluoroethyl)-4,6-dimethoxy-pyrimidin-2-yl]-1H-indole-3-sulfonamide], with 124 nM.
Then `COc1nc(NS(=O)(=O)c2csc3nc(Br)ccc23)ncc1CCC#N` [Example 149, 6-bromo-N-[5-(2-cyanoethyl)-4-methoxy-pyrimidin-2-yl]thieno[2,3-b]pyridine-3-sulfonamide], with 147 nM; and `COc1nc(NS(=O)(=O)c2c[nH]c3cc(Cl)ccc23)ncc1OC1CC1` [Example 38, 6-chloro-N-[5-(cyclopropoxy)-4-methoxy-pyrimidin-2-yl]-1H-indole-3-sulfonamide], with 2680 nM.
The molecule `COc1nc(NS(=O)(=O)c2c[nH]c3nc(Br)ccc23)nc(OC)c1OCC(F)F` [Example 202, 6-bromo-N-[5-(2,2-difluoroethoxy)-4,6-dimethoxy-pyrimidin-2-yl]-1H-pyrrolo[2,3-b]pyridine-3-sulfonamide] had an IC50 of 28 nM.
The molecule `COc1nc(NS(=O)(=O)c2c[nH]c3cc(Cl)ccc23)ncc1C1COC1` [Example 50, 6-chloro-N-[4-methoxy-5-(oxetan-3-yl)pyrimidin-2-yl]-1H-indole-3-sulfonamide] registered an IC50 of 2790 nM.
For `COc1nc(NS(=O)(=O)c2c[nH]c3c(C4CC4)c(Cl)ccc23)ncc1CC(F)F` [Example 233, 6-chloro-7-cyclopropyl-N-[5-(2,2-difluoroethyl)-4-methoxy-pyrimidin-2-yl]-1H-indole-3-sulfonamide], the IC50 amounted to 202 nM.
Then `COc1nc(NS(=O)(=O)c2c[nH]c3nc(Br)ccc23)ncc1OC(F)(F)CF` [Example 231, 6-bromo-N-[4-methoxy-5-(1,1,2-trifluoroethoxy)pyrimidin-2-yl]-1H-pyrrolo[2,3-b]pyridine-3-sulfonamide], with 21 nM; and `COc1nc(NS(=O)(=O)c2c[nH]c3cc(C(F)(F)F)ccc23)ncc1CC(F)F` [Example 190, N-[5-(2,2-difluoroethyl)-4-methoxy-pyrimidin-2-yl]-6-(trifluoromethyl)-1H-indole-3-sulfonamide], with 106 nM; and `COc1nc(NS(=O)(=O)c2c[nH]c3c2ccc2cccnc23)nc(OC)c1OC(F)F` [Example 116, N-[5-(difluoromethoxy)-4,6-dimethoxy-pyrimidin-2-yl]-1H-pyrrolo[3,2-h]quinoline-3-sulfonamide], with 26 nM.
Molecule `COc1nc(NS(=O)(=O)c2c[nH]c3cc(F)ccc23)nc(OC)c1CCC#N` [Example 259, N-[5-(2-cyanoethyl)-4,6-dimethoxy-pyrimidin-2-yl]-6-fluoro-1H-indole-3-sulfonamide] displayed an IC50 of 25 nM.
Then `COc1nc(NS(=O)(=O)c2c[nH]c3nc(Br)ccc23)ncc1OCC(F)F` [Example 161, 6-bromo-N-[5-(2,2-difluoroethoxy)-4-methoxy-pyrimidin-2-yl]-1H-pyrrolo[2,3-b]pyridine-3-sulfonamide], with 72 nM; and `COc1nc(NS(=O)(=O)c2c[nH]c3cc(Cl)ccc23)nc(OC)c1CC(F)F` [Example 60, 6-chloro-N-[5-(2,2-difluoroethyl)-4,6-dimethoxy-pyrimidin-2-yl]-1H-indole-3-sulfonamide], with 8 nM.
With `COc1nc(NS(=O)(=O)c2c[nH]c3c(C#N)c(Cl)ccc23)ncc1CC(F)F` [Example 223, 6-chloro-7-cyano-N-[5-(2,2-difluoroethyl)-4-methoxy-pyrimidin-2-yl]-1H-indole-3-sulfonamide], the IC50 was 40 nM.
